This is an account of results in patent US9938281B2 (Merck Sharp & Dohme Corp., priority 2012, dated 2018).

The target of assay [1] is T1, PI3K-alpha (Homo sapiens, UniProt P42336).
T1 construct: purchased Upstate; Millipore 14-602
Nature of the assay: HTRF PI3K biochemical assay, alpha isoform. Particulars: ratio PI3K-alpha IC50 value / PI3K-delta IC50 value.

Assay [2] concerns the target T2, PI3K-delta (Homo sapiens, UniProt O00329).
T2 construct: purchased Upstate; Millipore 14-604
Nature of the assay: HTRF PI3K biochemical assay, delta isoform. To be noted: form screened (neutral or TFA salt) given, read-out: PI3Kdelta IC50.

T2 sequence (O00329 whole entry): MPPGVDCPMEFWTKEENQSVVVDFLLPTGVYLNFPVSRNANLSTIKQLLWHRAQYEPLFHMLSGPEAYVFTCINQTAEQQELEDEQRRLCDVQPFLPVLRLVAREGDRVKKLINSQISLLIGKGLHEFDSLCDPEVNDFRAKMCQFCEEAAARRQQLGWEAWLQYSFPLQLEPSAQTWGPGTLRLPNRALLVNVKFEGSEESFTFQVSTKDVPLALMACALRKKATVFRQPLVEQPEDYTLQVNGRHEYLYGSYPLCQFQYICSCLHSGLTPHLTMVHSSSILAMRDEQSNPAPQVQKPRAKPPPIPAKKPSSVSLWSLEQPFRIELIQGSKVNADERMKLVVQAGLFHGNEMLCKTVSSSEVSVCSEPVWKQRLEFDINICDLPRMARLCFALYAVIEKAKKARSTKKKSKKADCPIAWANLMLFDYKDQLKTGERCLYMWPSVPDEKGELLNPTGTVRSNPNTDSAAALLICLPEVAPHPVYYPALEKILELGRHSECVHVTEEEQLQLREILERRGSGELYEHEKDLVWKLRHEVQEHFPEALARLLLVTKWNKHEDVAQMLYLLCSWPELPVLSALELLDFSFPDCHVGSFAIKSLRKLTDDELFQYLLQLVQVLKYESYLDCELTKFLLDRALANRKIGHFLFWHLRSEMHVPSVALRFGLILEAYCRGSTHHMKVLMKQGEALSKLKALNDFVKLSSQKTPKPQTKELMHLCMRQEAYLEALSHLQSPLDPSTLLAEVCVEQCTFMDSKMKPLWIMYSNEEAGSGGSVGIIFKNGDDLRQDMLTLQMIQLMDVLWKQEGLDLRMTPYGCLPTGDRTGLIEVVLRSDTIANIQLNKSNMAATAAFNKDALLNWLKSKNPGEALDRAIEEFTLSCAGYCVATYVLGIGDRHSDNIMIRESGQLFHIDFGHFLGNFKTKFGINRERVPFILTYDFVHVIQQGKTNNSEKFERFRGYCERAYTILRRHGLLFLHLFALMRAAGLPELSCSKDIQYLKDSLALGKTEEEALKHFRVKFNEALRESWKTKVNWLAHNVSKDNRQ
T2 sequence (P27986 whole entry partner): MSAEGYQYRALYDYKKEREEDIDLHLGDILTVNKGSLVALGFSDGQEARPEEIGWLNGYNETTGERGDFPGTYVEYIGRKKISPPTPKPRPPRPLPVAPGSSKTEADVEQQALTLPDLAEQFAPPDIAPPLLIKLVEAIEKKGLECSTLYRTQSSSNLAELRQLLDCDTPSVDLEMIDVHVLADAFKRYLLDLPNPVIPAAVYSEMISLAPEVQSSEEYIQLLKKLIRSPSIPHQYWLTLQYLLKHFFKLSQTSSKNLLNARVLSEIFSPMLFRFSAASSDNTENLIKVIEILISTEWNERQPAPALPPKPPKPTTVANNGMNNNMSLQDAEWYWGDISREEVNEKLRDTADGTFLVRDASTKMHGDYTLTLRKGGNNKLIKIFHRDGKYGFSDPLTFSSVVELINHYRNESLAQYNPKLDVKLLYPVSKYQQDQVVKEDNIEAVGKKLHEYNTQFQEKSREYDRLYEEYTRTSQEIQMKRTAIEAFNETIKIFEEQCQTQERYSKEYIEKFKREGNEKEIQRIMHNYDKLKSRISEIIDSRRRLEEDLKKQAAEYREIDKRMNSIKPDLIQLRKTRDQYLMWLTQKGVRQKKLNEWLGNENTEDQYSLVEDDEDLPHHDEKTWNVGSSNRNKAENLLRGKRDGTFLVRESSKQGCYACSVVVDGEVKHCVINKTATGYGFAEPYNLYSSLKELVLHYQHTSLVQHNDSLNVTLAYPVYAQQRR
T1 sequence (P42336 whole entry): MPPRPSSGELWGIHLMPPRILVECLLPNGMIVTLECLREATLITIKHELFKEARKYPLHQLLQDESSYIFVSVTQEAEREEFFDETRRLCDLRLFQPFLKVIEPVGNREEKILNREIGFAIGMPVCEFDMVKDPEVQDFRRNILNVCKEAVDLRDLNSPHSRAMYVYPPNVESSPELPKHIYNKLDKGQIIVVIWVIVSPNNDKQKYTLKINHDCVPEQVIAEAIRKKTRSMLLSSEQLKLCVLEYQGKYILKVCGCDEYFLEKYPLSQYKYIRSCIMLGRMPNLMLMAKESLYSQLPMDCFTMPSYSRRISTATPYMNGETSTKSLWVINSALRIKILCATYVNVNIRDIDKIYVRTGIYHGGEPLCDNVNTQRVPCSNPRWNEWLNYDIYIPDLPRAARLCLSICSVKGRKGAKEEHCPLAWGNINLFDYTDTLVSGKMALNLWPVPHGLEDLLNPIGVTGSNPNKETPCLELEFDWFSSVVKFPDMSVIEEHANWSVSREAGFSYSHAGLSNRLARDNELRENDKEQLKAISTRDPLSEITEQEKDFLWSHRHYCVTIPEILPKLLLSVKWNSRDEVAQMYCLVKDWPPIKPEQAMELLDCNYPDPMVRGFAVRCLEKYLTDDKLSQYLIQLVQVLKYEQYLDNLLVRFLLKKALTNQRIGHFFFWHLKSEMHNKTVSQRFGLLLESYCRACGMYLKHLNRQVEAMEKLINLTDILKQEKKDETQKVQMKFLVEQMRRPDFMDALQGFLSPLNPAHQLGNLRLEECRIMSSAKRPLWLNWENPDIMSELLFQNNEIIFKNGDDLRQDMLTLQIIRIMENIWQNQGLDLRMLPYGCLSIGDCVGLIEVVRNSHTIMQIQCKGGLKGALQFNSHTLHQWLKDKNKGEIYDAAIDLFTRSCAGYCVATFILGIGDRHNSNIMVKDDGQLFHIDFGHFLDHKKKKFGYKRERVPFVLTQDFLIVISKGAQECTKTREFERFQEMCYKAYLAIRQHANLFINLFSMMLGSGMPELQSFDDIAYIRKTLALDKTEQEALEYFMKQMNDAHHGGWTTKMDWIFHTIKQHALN
T1 sequence (P27986 whole entry partner): as the sequence (P27986 whole entry partner) above

For `CCn1c(-c2cnc(OC)c(F)c2)nc2c(N[C@H]3CCN(C(=O)c4cocn4)C3)ncnc21` [Compound 3A-1, 9-ethyl-8-(5-fluoro-6-methoxypyridin-3-yl)-N-[(3S)-1-(1,3-oxazol-4-ylcarbonyl)pyrrolidin-3-yl]-9H-purin-6-amine], the “Selectivity versus PI3Kalpha” value in assay [1] is recorded as over 10. Also, the IC50 in assay [2] stood at 1 nM.
The corresponding values for `CCn1c(C(F)F)nc2c(N[C@H]3CCN(c4ccccn4)C3)ncnc21` [Compound 7-26, 8-(difluoromethyl)-9-ethyl-N-[(3S)-1-pyridin-2-ylpyrrolidin-3-yl]-9H-purin-6-amine] are over 10 and 28 nM.
For `CCn1c(-c2cnc(C)nc2)nc2c(N[C@H]3CCN(C(=O)C4(C#N)CC4)C3)ncnc21` [Compound 2-65, 1-{[(3S)-3-{[9-ethyl-8-(2-methylpyrimidin-5-yl)-9H-purin-6-yl]amino}pyrrolidin-1-yl]carbonyl}cyclopropanecarbo-nitrile] the same measures were over 10 and 11 nM.
Consider `CCn1c(-c2cnc(C)nc2)nc2c(N[C@H]3CCN(C(=O)OCCF)C3)ncnc21` [Compound 13-3, 2-fluoroethyl (3S)-3-{[9-ethyl-8-(2-methylpyrimidin-5-yl)-9H-purin-6-yl]amino}pyrrolidine-1-carboxylate], for which, in assay [1], the “Selectivity versus PI3Kalpha” value is on record as over 10. In addition, the IC50 in assay [2] amounted to 8.7 nM.
For `CCn1c(-c2cnc(C)nc2)nc2c(N[C@H]3C[C@@H](C(=O)OC)N(C(=O)C4CC4)C3)ncnc21` [Compound 2-54, methyl (4S)-1-(cyclopropylcarbonyl)-4-{[9-ethyl-8-(2-methylpyrimidin-5-yl)-9H-purin-6-yl]amino}-L-prolinate] the same measures were over 10 and 63 nM.
`CCn1c(-c2cnc(C)nc2)nc2c(N[C@H]3C[C@H](C(=O)N[C@@H](C)C(C)C)N(C(=O)C4CC4)C3)ncnc21` [Compound 15-6, (4S)-1-(cyclopropylcarbonyl)-N-[(1S)-1,2-dimethylpropyl]-4-{[9-ethyl-8-(2-methylpyrimidin-5-yl)-9H-purin-6-yl]amino}-D-prolinamide]: in assay [1], the “Selectivity versus PI3Kalpha” value was over 10. Besides, the IC50 in assay [2] was 20 nM.
The corresponding values for `CCn1ncc(-c2nc3c(N[C@@H]4CCCN(C(=O)OC(C)(C)C)C4)ncnc3n2C)c1C` [Compound 1-11, (R)-tert-butyl 3-((8-(1-ethyl-5-methyl-1H-pyrazol-4-yl)-9-methyl-9H-purin-6-yl)amino)piperidine-1-carboxylate] are over 10 and 250 nM.
`CCn1c(-n2cnc3ccccc32)nc2c(N[C@H]3CCN(C(=O)C4CC4)C3)ncnc21` [Compound 8-2, 8-(1H-benzimidazol-1-yl)-N-[(3S)-1-(cyclopropylcarbonyl)pyrrolidin-3-yl]-9-ethyl-9H-purin-6-amine]: the “Selectivity versus PI3Kalpha” value in assay [1] is over 10. Besides, the IC50 in assay [2] was under 1 nM.
For `CCn1c(-c2cnc(C)nc2)nc2c(N[C@H]3CCCN(c4ccccn4)C3)ncnc21` [Compound 4-5, 9-ethyl-8-(2-methylpyrimidin-5-yl)-N-[(3S)-1-pyridin-2-ylpiperidin-3-yl]-9H-purin-6-amine] the same measures were over 10 and 9.6 nM.
For `CCn1c(-c2cnc(C)nc2)nc2c(N[C@H]3CCN(C(=O)c4cncn4C)C3)ncnc21` [Compound 2-69, [(3S)-3-{[9-ethyl-8-(2-methylpyrimidin-5-yl)-9H-purin-6-yl]amino}pyrrolidin-1-yl](1-methyl-1H-imidazol-5-yl)methanone], the “Selectivity versus PI3Kalpha” value in assay [1] is over 10. The IC50 in assay [2] came out at 3.8 nM.
For `CCn1c(N(C)CC(C)C)nc2c(N[C@H]3CCN(C(=O)C4CC4)C3)ncnc21` [Compound 8-4, cyclopropyl[(3S)-3-({9-ethyl-8-[methyl(2-methylpropyl)amino]-9H-purin-6-yl}amino)pyrrolidin-1-yl]methanone] the same measures were over 10 and 100 nM.
In the case of `CCn1c(C2CC2)nc2c(N[C@H]3CCN(C(=O)C4CC4)C3)ncnc21` [Compound 7-10, 8-cyclopropyl-N-[(3S)-1-(cyclopropylcarbonyl)pyrrolidin-3-yl]-9-ethyl-9H-purin-6-amine], in assay [1], the “Selectivity versus PI3Kalpha” value is reported as over 10. Moreover, the IC50 in assay [2] was found to be 120 nM.
The corresponding values for `CCn1c(-c2cnc(C)nc2)nc2c(N[C@@H]3CN(C(=O)C4CC4)C[C@H]3O)ncnc21` (racemic) [Compound 2-96, 1-(cyclopropylcarbonyl)-4-{(3R,4R) and (3S,4S)-[9-ethyl-8-(2-methylpyrimidin-5-yl)-9H-purin-6-yl]amino}pyrrolidin-3-ol] are over 10 and 6 nM.
The corresponding values for `CCn1c(-c2cnc(C)nc2)nc2c(NC3CN(C(=O)C4CC4)CC3(C)C)ncnc21` (racemic) [Compound 2-95, (R and S)-N-[1-(cyclopropylcarbonyl)-4,4-dimethylpyrrolidin-3-yl]-9-ethyl-8-(2-methylpyrimidin-5-yl)-9H-purin-6-amine] are over 10 and 4.5 nM.
Take `CCn1c(-c2cnc(C)nc2)nc2c(N[C@H]3CCN(C(=O)C4CC4(C)C)C3)ncnc21` (mixture of isomers) [Compound 2-56, N-{(3S)-1-[((R and S)-2,2-dimethylcyclopropyl)carbonyl]pyrrolidin-3-yl}-9-ethyl-8-(2-methylpyrimidin-5-yl)-9H-purin-6-amine]: the “Selectivity versus PI3Kalpha” value in assay [1] is recorded as over 10. In addition, the IC50 in assay [2] turned out to be 1 nM.
For `CCn1c(-c2cnc(C)nc2)nc2c(N[C@H]3CCN(c4nccc5sccc45)C3)ncnc21` [Compound 4-13, 9-ethyl-8-(2-methylpyrimidin-5-yl)-N-[(3S)-1-thieno[3,2-c]pyridin-4-y 1pyrrolidin-3-yl]-9H-purin-6-amine] the same measures were over 10 and 14 nM.
The corresponding values for `CCn1c(-c2cnc(C)nc2)nc2c(N[C@H]3CCN(C(=O)OC4CCS(=O)(=O)C4)C3)ncnc21` (mixture of isomers) [Compound 13-6, (S and R)-1,1-dioxidotetrahydrothiophen-3-yl (3S)-3-{[9-ethyl-8-(2-methylpyrimidin-5-yl)-9H-purin-6-yl]amino}pyrrolidine-l-carboxylate] are over 10 and 4.6 nM.
For `CCn1c(-c2cnc(C)nc2)nc2c(N[C@H]3CCN(C(=O)C4CCCO4)C3)ncnc21` (single isomer, unassigned) [Compound 2-32, 9-ethyl-8-(2-methylpyrimidin-5-yl)-N-[(3S)-1-((S or R)-tetrahydrofuran-2-ylcarbonyl)pyrrolidin-3-yl]-9H-purin-6-amine] the same measures were over 10 and 3.1 nM.
In the case of `CCn1c(-c2cnc(C)nc2)nc2c(N[C@H]3CCN(C(=O)C4CCCC4)C3)ncnc21` [Compound 2-23, (S)-cyclopentyl(3-((9-ethyl-8-(2-methylpyrimidin-5-yl)-9H-purin-6-yl)amino)pyrrolidin-1-yl)methanone], the “Selectivity versus PI3Kalpha” value in assay [1] is on record as over 10. Moreover, in assay [2], the IC50 was 8 nM.
For `CCn1c(-c2cnc(C)nc2)nc2c(N[C@H]3CCN(C(=O)[C@H]4C[C@@H]4C)C3)ncnc21` [Compound 2-93, 9-ethyl-N-[(3S)-1-{[(1S,2S)-2-methylcyclopropyl]carbonyl}pyrrolidin-3-yl]-8-(2-methylpyrimidin-5-yl)-9H-purin-6-amine] the same measures were over 10 and 11.2 nM.
For `CCC(=O)N1CC[C@H](Nc2ncnc3c2nc(-c2ccc(C(F)(F)F)nc2)n3C)C1` [Compound 3-1, (S)-1-(3-((9-methyl-8-(6-(trifluoromethyl)pyridin-3-yl)-9H-purin-6-yl)amino)pyrrolidin-1-yl)propan-1-one] the same measures were over 10 and 11 nM.
The corresponding values for `CCn1ncc(-c2nc3c(NC4CN(C(=O)C5CCOCC5)C4)ncnc3n2C)c1C` [Compound 2-48, 8-(1-ethyl-5-methyl-1H-pyrazol-4-yl)-9-methyl-N-[1-(tetrahydro-2H-pyran-4-ylcarbonyl)azetidin-3-yl]-9H-purin-6-amine] are over 10 and 16 nM.
In the case of `CCn1c(-c2cnc(C)nc2)nc2c(N[C@H]3CCN(C(=O)NCCOC)C3)ncnc21` [Compound 12-2, (3S)-3-{[9-ethyl-8-(2-methylpyrimidin-5-yl)-9H-purin-6-yl]amino}-N-(2-methoxyethyl)pyrrolidine-1-carboxamide], the “Selectivity versus PI3Kalpha” value in assay [1] is recorded as over 10. The IC50 in assay [2] came to 8.9 nM.
The corresponding values for `CCn1c(-c2ccc(C(F)(F)F)nc2)nc2c(N[C@H]3CCN(C(=O)[C@H]4C[C@H](OC)C4)C3)ncnc21` [Compound 2-106, 9-ethyl-N-{(3S)-1-[(trans-3-methoxycyclobutyl)carbonyl]pyrrolidin-3-yl}-8-[6-(trifluoromethyl)pyridin-3-yl]-9H-purin-6-amine] are over 10 and 1.2 nM.
The corresponding values for `CCn1c(-c2cnc(C)nc2)nc2c(N[C@H]3CCN(C(=O)C4(COC)CC4)C3)ncnc21` [Compound 2-61, 9-ethyl-N-[(3S)-1-{[1-(methoxymethyl)cyclopropyl]carbonyl}pyrrolidin-3-yl]-8-(2-methylpyrimidin-5-yl)-9H-purin-6-amine] are over 10 and 23 nM.
The corresponding values for `CCC(=O)N1CC[C@H](Nc2ncnc3c2nc(-c2ccc4cn[nH]c4c2)n3C)C1` [Compound 3-6, (S)-1-(3-((8-(1H-indazol-6-yl)-9-methyl-9H-purin-6-yl)amino)pyrrolidin-1-yl)propan-1-one] are over 10 and 1.6 nM.
For `CCn1c(-c2cnc(OC)c(C)c2)nc2c(N[C@H]3CCN(C(=O)OC(C)(C)C)C3)ncnc21` [Compound 1-5, (S)-tert-butyl 3-((9-ethyl-8-(6-methoxy-5-methylpyridin-3-yl)-9H-purin-6-yl)amino)pyrrolidine-1-carboxylate], in assay [1], the “Selectivity versus PI3Kalpha” value was over 10. The IC50 in assay [2] is under 1 nM.
